Structures can show the parent of a compound that is named as a salt.
Key:
[1] = test system: Croton-Oil Induced Inflammation To The Mouse's Ear; test: Delayed co-application to existing croton-oil induced inflammation of the mouse's ear (Table II), edema weight and percent inhibition; details: for Ear edema weight (± S.D.): control 14.9±3.8
Experimental: (§1) Hydrocortisone and bis-(2-pyridyl-1-oxide) disulfide magnesium sulfate were suspended or dissolved in ethanol U.S.P. (200 proof) at concentrations of 20, 40 and 80 mg/ml of bis-(2-pyridyl-1-oxide) disulfide magnesium sulfate and 0.01, 1 and 10 mg of hydrocortisone.
Groups of mice treated with only the croton oil irritant solution served as controls. The right ear of mice in any group was not treated.
(§2) Four hours after application of the irritant vehicle (three hours after drug application) both ears were amputated and one circular section was exercised from each ear using a No. 4 cork borer (7 mm i.d.). The ear sections were then weighed. The increase in weight due to edema formation caused by the croton oil in the treated ear and reduction of the edema caused by treatment with bis-(2-pyridyl-1-oxide) disulfide magnesium sulfate hydrocortisone or combinations thereof was determined by subtracting the weight of the untreated right ear section from that of the treated left ear section.

[2] = test system: Croton-Oil Induced Inflammation To The Mouse's Ear; test: Immediate co-administration: croton-oil induced inflammation of the mouse's ear (Table I), edema weight and percent inhibition; details: immediate application; for Ear edema weight (± S.D.): control 16.9±3.0
Experimental: Mathematical determination of the synergistic effects of combinations of bis-(2-pyridyl-1-oxide) disulfide magnesium sulfate and hydrocortisone was done using a modification of the method described by Van Arman, C.
as §1, §2
Ethanol was used as the vehicle; pyridine contained in the usual irritant vehicle as described previously produces an alkaline reaction. Controls were treated with only the croton oil vehicle.
A fixed dose of 4 mg/ear of bis-(2-pyridyl-1-oxide) disulfide magnesium sulfate was co-applied with 0.01, 0.1 and 1 mg/ear of hydrocortisone.

[3] = Solubility in ethanol U.S.P. (200 proof)
[4] = delayed application, adduct alone 4 mg/ear
[5] = delayed application, adduct alone 8 mg/ear
[6] = adduct alone, topical dose 4 mg/ear
[7] = delayed application, hydrocortisone (free alcohol) alone 0.01 mg/ear
[8] = delayed application, hydrocortisone (free alcohol) alone 0.1 mg/ear
[9] = delayed application, hydrocortisone (free alcohol) alone 1.0 mg/ear
[10] = hydrocortisone alone 0.1 mg/ear
[11] = hydrocortisone alone 1.0 mg/ear

## [O-][n+]1ccccc1SSc1cccc[n+]1[O-] [bis-(2-pyridyl-1-oxide) disulfide magnesium sulfate]
[1]; adduct by itself 0.87 mg/ear
  expected anti-inflammatory response by extrapolation of dose-response line: little, if any, significant anti-inflammatory response
[1]; delayed application, 1 hour after croton oil, adduct alone 2 mg/ear
  Ear edema weight (± S.D.): 12.7 ± 2.4 mg
[1]; delayed application, adduct alone
  dose of adduct by itself necessary to achieve a similar response (46.3%): 17.7 mg/ear
[1]; delayed application, adduct alone 2 mg/ear
  Percent inhibition of ear edema: 14.8%
[1]; [4]
  Percent inhibition of ear edema: 23.5%
  Ear edema weight (± S.D.): 11.4 ± 2.8 mg
[1]; [5]
  Percent inhibition of ear edema: 35.6%
  Ear edema weight (± S.D.): 9.6 ± 2.2 mg
[2]; [6]
  Percent inhibition of ear edema: 24.9%
  Ear edema weight (± S.D.): 12.7 ± 3.0 mg
[3]
  solubility in the alcohol vehicle: formed a fine suspension

## C[C@]12CCC(=O)C=C1CC[C@@H]1[C@@H]2[C@@H](O)C[C@@]2(C)[C@H]1CC[C@]2(O)C(=O)CO [Hydrocortisone]
[1]; [7]
  Percent inhibition of ear edema: 17.5%
  Ear edema weight (± S.D.): 12.3 ± 3.3 mg
[1]; [8]
  Percent inhibition of ear edema: 40.3%
  Ear edema weight (± S.D.): 8.9 ± 2.3 mg
[1]; [9]
  Percent inhibition of ear edema: 58.4%
  Ear edema weight (± S.D.): 6.2 ± 2.4 mg
[1]; delayed application, hydrocortisone alone
  dose of hydrocortisone by itself necessary to achieve a similar response (46.3%): 0.25 mg/ear
[1]; hydrocortisone by itself 0.00125 mg/ear
  expected anti-inflammatory response by extrapolation of dose-response line: little, if any, significant anti-inflammatory response
[2]; hydrocortisone alone 0.01 mg/ear (Table I)
  Percent inhibition of ear edema: 23.1%
[2]; hydrocortisone alone 0.01 mg/ear
  Ear edema weight (± S.D.): 13.0 ± 3.8 mg
[2]; [10]
  Percent inhibition of ear edema: 53.3%
  Ear edema weight (± S.D.): 7.9 ± 2.3 mg
[2]; [11]
  Percent inhibition of ear edema: 67.5%
  Ear edema weight (± S.D.): 5.5 ± 2.6 mg
[2]; hydrocortisone alone, dose printed in text 0.01 mg/ear
  inhibition: 53.3%

From patent publication US4137311A, “Synergistic compositions and method of use” (William H. Rorer, Inc., priority 1977, dated 1979)
